Assay results as given in patent US20230000876A1, “TREATING CANCERS WITH A CYCLIN-DEPENDENT KINASE INHIBITOR” (Nuvation Bio Inc., priority 2021, published 2023).

Legend:
[1] = tested on: xMDA-MB-361 breast tumor; experiment: xMDA-MB-361 breast tumor model (ER-positive/HER2-positive); type: in vivo, female BALB/c nude mice; details: Group 3: Tucatinib 60 mg/kg PO QD*42 days
Experimental: Trastuzumab, tucatinib, Compound (I), and fulvestrant were tested in a xMDA-MB-361 breast tumor model (ER-positive/HER2-positive) on female BALB/c nude mice.

[2] = tested on: xBT474 breast tumor; experiment: xBT474 breast tumor model (ER-negative/HER2-positive); details: Group 3: Tucatinib 25 mg/kg PO QD*28 days
[3] = tested on: VCap prostate cancer; experiment: Non-castrated VCap prostate cancer model; type: in vivo, male CB17/Scid mice; details: Group 7: Abiraterone 350 mg/kg p.o. QD * 26 days
Experimental: Compound (I), enzalutamide, and abiraterone were tested in non-castrated VCap prostate cancer model in male CB17/Scid mice.
All treatment groups reduced mean tumor volume.

Cc1cc(Nc2ncnc3ccc(NC4=NC(C)(C)CO4)cc23)ccc1Oc1ccn2ncnc2c1 [Tucatinib]
Tumor volume (mean ± SEM) ([1]; Day 0): 157 ± 11 mm^3 | Tumor volume (mean ± SEM) ([1]; Day 3): 148 ± 11 mm^3 | Tumor volume (mean ± SEM) ([1]; Day 7): 156 ± 20 mm^3 | Tumor volume (mean ± SEM) ([1]; Day 10): 219 ± 30 mm^3 | Tumor volume (mean ± SEM) ([1]; Day 14): 408 ± 59 mm^3 | Tumor volume (mean ± SEM) ([1]; Day 17): 658 ± 112 mm^3 | Tumor volume (mean ± SEM) ([1]; Day 21): 970 ± 206 mm^3 | Tumor volume (mean ± SEM) ([1]; Day 24): 1185 ± 222 mm^3 | Tumor volume (mean ± SEM) ([1]; Day 28): 1496 ± 250 mm^3 | Tumor volume (mean ± SEM) ([1]; Day 31): 1707 ± 309 mm^3 | Tumor volume (mean ± SEM) ([1]; Day 35): 1580 ± 240 mm^3 | Tumor volume (mean ± SEM) ([1]; Day 38): 1675 ± 283 mm^3 | Tumor volume (mean ± SEM) ([1]; Day 42): 1670 ± 344 mm^3 | Tumor volume (mean ± SEM) ([2]; Day 0): 146 ± 10 mm^3 | Tumor volume (mean ± SEM) ([2]; Day 4): 177 ± 11 mm^3 | Tumor volume (mean ± SEM) ([2]; Day 7): 199 ± 19 mm^3 | Tumor volume (mean ± SEM) ([2]; Day 11): 168 ± 16 mm^3 | Tumor volume (mean ± SEM) ([2]; Day 14): 169 ± 15 mm^3 | Tumor volume (mean ± SEM) ([2]; Day 18): 234 ± 28 mm^3 | Tumor volume (mean ± SEM) ([2]; Day 21): 288 ± 35 mm^3 | Tumor volume (mean ± SEM) ([2]; Day 25): 341 ± 47 mm^3 | Tumor volume (mean ± SEM) ([2]; Day 28): 397 ± 68 mm^3 | Tumor volume (mean ± SEM) ([2]; Day 32): 406 ± 96 mm^3 | Tumor volume (mean ± SEM) ([2]; Day 35): 488 ± 112 mm^3 | Tumor volume (mean ± SEM) ([2]; Day 39): 420 ± 91 mm^3 | Tumor volume (mean ± SEM) ([2]; Day 42): 431 ± 89 mm^3 | Tumor volume (mean ± SEM) ([2]; Day 46): 421 ± 81 mm^3

C[C@]12CC[C@H](O)CC1=CC[C@@H]1[C@@H]2CC[C@]2(C)C(c3cccnc3)=CC[C@@H]12 [Abiraterone, abiraterone, reference compound]
Tumor volume (mean ± SEM) ([3]; Day 0): 171.7 ± 5.9 mm^3 | Tumor volume (mean ± SEM) ([3]; Day 4): 278 ± 22.9 mm^3 | Tumor volume (mean ± SEM) ([3]; Day 7): 365.9 ± 35.9 mm^3 | Tumor volume (mean ± SEM) ([3]; Day 11): 582.6 ± 43.3 mm^3 | Tumor volume (mean ± SEM) ([3]; Day 14): 762.2 ± 73.7 mm^3 | Tumor volume (mean ± SEM) ([3]; Day 18): 985.6 ± 86.7 mm^3 | Tumor volume (mean ± SEM) ([3]; Day 21): 1056.1 ± 83.2 mm^3 | Tumor volume (mean ± SEM) ([3]; Day 25): 1184.9 ± 82.6 mm^3
